Data as given in ChEMBL document CHEMBL3763124, “N-Benzylbenzamides: A Novel Merged Scaffold for Orally Available Dual Soluble Epoxide Hydrolase/Peroxisome Proliferator-Activated Receptor γ Modulators” (J Med Chem, 2016).
Converted amounts (≈) assume the structure as drawn. The source made the active and inactive calls. The calls are words filed in the database; no cut-off is given here.

Experiments:
[1] = biological target: T1, Bifunctional epoxide hydrolase 2 (Homo sapiens, UniProt P34913); experiment: Inhibition of human recombinant sEH using PHOME as substrate preincubated for 30 mins followed by substrate addition measured for 30 mins by fluorescence-based assay
T1 sequence (P34913 whole entry): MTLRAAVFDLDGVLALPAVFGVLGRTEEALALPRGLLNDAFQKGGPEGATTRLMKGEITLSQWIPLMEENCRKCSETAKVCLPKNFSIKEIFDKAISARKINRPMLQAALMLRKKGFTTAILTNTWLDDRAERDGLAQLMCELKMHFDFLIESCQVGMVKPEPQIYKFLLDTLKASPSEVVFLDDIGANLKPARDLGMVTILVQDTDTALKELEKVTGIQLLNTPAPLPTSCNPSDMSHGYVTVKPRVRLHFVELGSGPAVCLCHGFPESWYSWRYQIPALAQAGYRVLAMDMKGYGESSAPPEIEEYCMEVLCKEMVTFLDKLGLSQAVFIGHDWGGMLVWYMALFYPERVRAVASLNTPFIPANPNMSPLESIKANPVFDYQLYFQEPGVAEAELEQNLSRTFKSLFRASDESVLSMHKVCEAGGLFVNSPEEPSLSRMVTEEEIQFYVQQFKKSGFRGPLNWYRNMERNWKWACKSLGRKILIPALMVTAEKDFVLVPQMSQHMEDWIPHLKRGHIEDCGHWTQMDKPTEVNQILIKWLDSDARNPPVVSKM

[2] = biological target: T2, Peroxisome proliferator-activated receptor delta (Homo sapiens, UniProt Q03181); experiment: Transactivation of human PPARdelta expressed in African green monkey COS7 cells incubated overnight by dual-glo luciferase reporter gene assay; type: cell-based; details: cos-7
T2 sequence (Q03181 whole entry): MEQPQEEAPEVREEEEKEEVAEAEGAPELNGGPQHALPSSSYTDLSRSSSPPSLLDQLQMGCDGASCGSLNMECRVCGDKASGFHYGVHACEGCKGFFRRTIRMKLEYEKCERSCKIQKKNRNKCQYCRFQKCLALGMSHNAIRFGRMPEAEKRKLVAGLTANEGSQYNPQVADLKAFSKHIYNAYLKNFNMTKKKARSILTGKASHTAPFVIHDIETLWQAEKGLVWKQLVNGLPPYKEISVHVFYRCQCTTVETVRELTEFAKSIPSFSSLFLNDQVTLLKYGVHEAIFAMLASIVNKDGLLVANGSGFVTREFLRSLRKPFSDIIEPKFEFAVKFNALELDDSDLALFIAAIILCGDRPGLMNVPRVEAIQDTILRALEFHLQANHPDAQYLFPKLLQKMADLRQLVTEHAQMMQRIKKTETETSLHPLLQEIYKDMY

[3] = biological target: T3, Peroxisome proliferator-activated receptor alpha (Homo sapiens) (UniProt Q07869); experiment: Transactivation of human PPARalpha expressed in African green monkey COS7 cells incubated overnight by dual-glo luciferase reporter assay relative to GW7647; type: cell-based; details: COS-7
T3 sequence (whole entry): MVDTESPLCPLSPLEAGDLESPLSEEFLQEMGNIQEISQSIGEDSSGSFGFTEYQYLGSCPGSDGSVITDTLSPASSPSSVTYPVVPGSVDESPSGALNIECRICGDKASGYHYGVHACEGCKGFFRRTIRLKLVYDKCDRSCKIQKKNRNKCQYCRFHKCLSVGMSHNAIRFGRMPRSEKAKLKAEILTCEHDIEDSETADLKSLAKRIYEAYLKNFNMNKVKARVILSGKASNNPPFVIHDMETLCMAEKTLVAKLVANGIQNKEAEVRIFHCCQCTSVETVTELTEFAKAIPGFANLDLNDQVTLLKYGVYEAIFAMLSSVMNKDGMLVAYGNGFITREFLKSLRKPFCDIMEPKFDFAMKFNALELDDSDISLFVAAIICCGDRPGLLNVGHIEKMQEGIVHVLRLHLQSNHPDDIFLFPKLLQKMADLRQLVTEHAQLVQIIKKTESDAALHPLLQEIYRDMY

[4] = biological target: T4, Peroxisome proliferator-activated receptor alpha (Homo sapiens, UniProt Q07869); details: cos-7
T4 sequence (Q07869 whole entry): T3 sequence (whole entry)
Description: Transactivation of human PPARalpha expressed in African green monkey COS7 cells incubated overnight by dual-glo luciferase reporter gene assay

[5] = Solubility of the compound in water by microplate reader analysis; type: physicochemical
[6] = biological target: T5, Bifunctional epoxide hydrolase 2 (Homo sapiens) (UniProt P34913); experiment: Inhibition of human recombinant sEH using PHOME as substrate at 10 uM preincubated for 30 mins followed by substrate addition measured for 30 mins by fluorescence-based assay
T5 sequence (whole entry): T1 sequence (P34913 whole entry)

[7] = biological target: T3, Peroxisome proliferator-activated receptor alpha (Homo sapiens); experiment: Transactivation of human PPARalpha expressed in African green monkey COS7 cells at 10 uM incubated overnight by dual-glo luciferase reporter assay; type: cell-based; details: COS-7
[8] = biological target: T6, Peroxisome proliferator-activated receptor delta (Homo sapiens) (UniProt Q03181); experiment: Transactivation of human PPARdelta expressed in African green monkey COS7 cells at 10 uM incubated overnight by dual-glo luciferase reporter assay; type: cell-based; details: COS-7
T6 sequence (whole entry): T2 sequence (Q03181 whole entry)

SMILES	IC50 [1]	EC50 [2]	Emax [3]	EC50 [4]	solubility [5]	inhibition [6]	Activity [7]	Emax [8]
CCOC(=O)C(CC)Cc1ccc(C(=O)NCc2ccc(F)cc2)cc1 (stereo not drawn)	2200 nM	Not Active	inactive	Not Active	–	–	–	–
CCOC(=O)C(CC)Cc1ccc(C(=O)NCc2ccc(OC)cc2)cc1 (stereo not drawn)	620 nM	Not Active	inactive	Not Active	7.5 µM (≈ 2.77 µg/mL)	–	–	–
CCC(Cc1ccc(C(=O)NCc2ccc(F)cc2C(F)(F)F)cc1)C(=O)O (stereo not drawn)	1200 nM	Not Active	inactive	Not Active	–	–	–	–
CCC(Cc1ccc(C(=O)NCc2ccccc2OC(F)(F)F)cc1)C(=O)O (stereo not drawn)	–	Not Active	inactive	Not Active	375 µM (≈ 148 µg/mL)	23%	–	–
CCOC(=O)C(CC)Cc1ccc(C(=O)NCc2ccccc2C)cc1 (stereo not drawn)	900 nM	Not Active	–	–	–	–	15%	–
CCOC(=O)C(CC)Cc1ccc(C(=O)NCc2ccccc2OC(F)(F)F)cc1 (stereo not drawn)	30 nM	Not Active	inactive	Not Active	75 µM (≈ 31.8 µg/mL)	–	–	–
CCOC(=O)CCc1ccc(C(=O)NCc2ccccc2C(F)(F)F)cc1	–	Not Active	inactive	Not Active	3.75 µM (≈ 1.42 µg/mL)	–	–	inactive
CCOC(=O)C(CC)Cc1ccc(C(=O)NCc2ccccc2Cl)cc1 (stereo not drawn)	3800 nM	Not Active	inactive	Not Active	–	–	–	–
CCCC(Cc1ccc(C(=O)NCc2ccccc2C(F)(F)F)cc1)C(=O)OCC (stereo not drawn)	–	Not Active	inactive	Not Active	3.75 µM (≈ 1.58 µg/mL)	–	–	inactive
O=C(O)CCc1ccc(C(=O)NCc2ccccc2C(F)(F)F)cc1	–	Not Active	inactive	Not Active	375 µM (≈ 132 µg/mL)	–	–	inactive
CCC(Cc1ccc(C(=O)NCc2ccc(OC(F)(F)F)cc2)cc1)C(=O)O (stereo not drawn)	14000 nM	Not Active	–	–	–	–	–	–
CCCC(Cc1ccc(C(=O)NCc2ccccc2C(F)(F)F)cc1)C(=O)O (stereo not drawn)	–	Not Active	inactive	Not Active	375 µM (≈ 148 µg/mL)	–	–	inactive
O=C(NCc1ccccc1C(F)(F)F)c1ccc(CC(C(=O)O)c2ccccc2)cc1 (stereo not drawn)	–	Not Active	inactive	Not Active	75 µM (≈ 32.1 µg/mL)	–	–	inactive
CCC(Cc1ccc(C(=O)NCc2ccccc2Cl)cc1)C(=O)O (stereo not drawn)	–	Not Active	inactive	Not Active	–	20%	–	–
CCOC(=O)C(CC)Cc1ccc(C(=O)NCc2ccc(C(F)(F)F)cc2)cc1 (stereo not drawn)	570 nM	Not Active	–	–	–	–	22%	–
CCC(Cc1ccc(C(=O)NCc2ccc(Cl)cc2)cc1)C(=O)O (stereo not drawn)	1500 nM	Not Active	inactive	Not Active	375 µM (≈ 130 µg/mL)	–	–	–
CCC(Cc1ccc(C(=O)NCc2ccc(F)cc2)cc1)C(=O)O (stereo not drawn)	–	Not Active	inactive	Not Active	–	28%	–	–

SMILES	IC50 [1]	EC50 [2]	Emax [3]	EC50 [4]	solubility [5]	inhibition [6]	Activity [7]	Emax [8]
CCC(Cc1ccc(C(=O)NCc2ccccc2C)cc1)C(=O)O (stereo not drawn)	–	Not Active	inactive	Not Active	–	25%	–	–
O=C(NCc1ccccc1C(F)(F)F)c1ccc(C2CC2C(=O)O)cc1 (stereo not drawn)	–	Not Active	inactive	Not Active	–	–	–	inactive
CCOC(=O)C(CC)Cc1ccc(C(=O)NCc2ccc(OC)cc2C(F)(F)F)cc1 (stereo not drawn)	30 nM	Not Active	–	–	–	–	22%	–
CCC(Cc1ccc(C(=O)NCc2ccc(OC)cc2)cc1)C(=O)O (stereo not drawn)	–	Not Active	inactive	Not Active	375 µM (≈ 128 µg/mL)	34%	–	–
CCOC(=O)C(Cc1ccc(C(=O)NCc2ccccc2C(F)(F)F)cc1)c1ccccc1 (stereo not drawn)	–	Not Active	inactive	Not Active	3.75 µM (≈ 1.71 µg/mL)	–	–	inactive
CC/C(=C\c1ccc(C(=O)NCc2ccccc2C(F)(F)F)cc1)C(=O)O	–	Not Active	inactive	Not Active	–	–	–	inactive
CCOC(=O)/C(=C/c1ccc(C(=O)NCc2ccccc2C(F)(F)F)cc1)CC	–	Not Active	inactive	Not Active	–	–	–	inactive
CC(Cc1ccc(C(=O)NCc2ccccc2C(F)(F)F)cc1)C(=O)O (stereo not drawn)	–	Not Active	inactive	Not Active	375 µM (≈ 137 µg/mL)	–	–	inactive
CCOC(=O)C(CC)Cc1ccc(C(=O)NCc2ccccc2)cc1 (stereo not drawn)	8500 nM	Not Active	inactive	Not Active	–	–	–	–
CCC(Cc1ccc(C(=O)NCc2ccccc2)cc1)C(=O)O (stereo not drawn)	–	Not Active	inactive	Not Active	–	4%	–	–
CCOC(=O)C(CC)Cc1ccc(C(=O)NCc2ccc(Cl)cc2)cc1 (stereo not drawn)	1700 nM	Not Active	inactive	Not Active	7.5 µM (≈ 2.8 µg/mL)	–	–	–
CCOC(=O)C(CC)Cc1ccc(C(=O)NCc2ccc(F)cc2C(F)(F)F)cc1 (stereo not drawn)	120 nM	Not Active	inactive	Not Active	–	–	–	–
CCOC(=O)C(C)Cc1ccc(C(=O)NCc2ccccc2C(F)(F)F)cc1 (stereo not drawn)	–	Not Active	inactive	Not Active	7.5 µM (≈ 2.95 µg/mL)	–	–	inactive
CCC(Cc1cccc(C(=O)NCc2ccccc2C(F)(F)F)c1)C(=O)O (stereo not drawn)	–	Not Active	–	–	–	–	34%	inactive
CCOC(=O)C(CC)Cc1cccc(C(=O)NCc2ccccc2C(F)(F)F)c1 (stereo not drawn)	–	Not Active	inactive	Not Active	–	–	–	inactive
CCOC(=O)C(CC)Cc1ccc(C(=O)NCc2ccc(OC(F)(F)F)cc2)cc1 (stereo not drawn)	900 nM	Not Active	–	–	–	–	–	–
CCC(Cc1ccc(C(=O)NCc2ccccc2Br)cc1)C(=O)O (stereo not drawn)	–	Not Active	inactive	Not Active	375 µM (≈ 146 µg/mL)	34%	–	–
